The target in test [1] is T1, HSV-1 protease (assemblin) (Human herpesvirus 1, UniProt P10210).
T1 construct: encoding residues 1-288 of HSV-1 UL26 open reading frame and 32 heterologous amino acid; 6xHis (N); made in house
Nature of the test: Enzymatic assay for HSV-1 protease (assemblin) inhibition (FP assay / HPLC assay). Format: biochemical. Here is the method: Enzymatic Assay for HSV-1 Protease (Assemblin) Inhibition
Assemblin protease activity was determined using fluorescence polarization (FP). The fluorescent substrate was biotin-gamma-aminobutyrate -[…]-DTAF, based on the HSV-1release cleavage site. […] A change in molecular size of fluorescent substrate molecule, which was increased using avidin as a reaction stop reagent, allowed cleavage to be measured by FP. Potential protease inhibitors were dissolved in DMF and then diluted 5-fold in assay buffer. […] The enzyme was diluted to 21.3 ug/mL in assay buffer (1M NaCitrate, 50 mM NaPhosphate, pH 7.4, 100mM NaCl, 20% glycerol, 2 mM TECP) and 48.5 uL were added to each well. Following a 30 minute incubation at room temperature, 10 uL of 62.5 ug/mL substrate were added. After about 90 minute incubation at room temperature, 50 uL of 2 mg/mL avidin in phosphate buffer (50 mM Naphosphate, 100 mM NaCl, pH 7.4) were added to each well. The plates were read by a fluorescence polarization plate reader. Inhibitor potency was determined by comparison with incubations lacking inhibitor.
Assays were performed with the peptide substrate H-His-Thr-Tyr-Leu-Gln-Ala-Ser-Glu-Lys-Phe-Lys-Met-Trp-Gly-NH2 (Bachem). This substrate is a HSV-1-amide UL26 Open Reading Frame (242-255) and is derived from the release site of HSV-1 protease. HSV-1protease cleaves between alanine and serine. The product […] was quantified on HPLC using fluorescence detection of tryptophan residue. Enzyme was diluted to 4.3 ug/mL in assay buffer (1 M NaCitrate, 50 mM NaPhosphate, pH 7.3, 100 mM NaCl, 20% glycerol, 2 mM TCEP) and 48.5 uL were added to the tubes. Potential protease inhibitors were dissolved in DMF and then diluted 10-fold in assay buffer. 6.5 uL of inhibitor solution were added to each tube. Following a 30-minute incubation at room temperature, 10 uL of substrate in phosphate buffer (50 mM Naphosphate, 100 mM NaCl, pH 7.4) were added to all tubes. The final concentration of the substrate in the reaction mixtures was 10 uM. After a 15-minute incubation at room temperature, assays were quenched using 50 uL of 50% TCA. Inhibitor potency was determined by comparison with incubations lacking inhibitor, which under these conditions gave about 20% cleavage of substrate.
Recombinant HSV-1 Protease
HSV-1 protease was purified from baculovirus expressing a DNA construction encoding residues 1-288 of HSV-1 UL26 open reading frame and 32 heterologous amino acid. The construction also encoded six additional histidine residues at the amino terminus of the protease. These additional histidine residues provided an affinity ligand by which the protein was purified using Ni-NTA agarose gel (Qiagen). The purified protease was stored in stock solution (20 mM HEPES buffer, pH 8.5, containing 20% (v/v) glycerol). This stock was diluted with assay buffer to adequate concentration of enzymatic assay.
A specific substrate was synthesized based on the cleavage specificity of HSV-1 protease at the “release site” of the assembly protein (DiIanni, C. L., et al., J. Biol. Chem. 268, 2048, (1993)). The assembly protein release site has the sequence, HTYLQA*SEKFKMWG. The substrate used was biotin-gamma -aminobutyrate-HTYLQA*SERFRIK-DTAF which was prepared by standard peptide synthetic methods such as that described in Bodansky and Bodansky, “The Practice of Peptide Synthesis” (1984), and was stored as a stock solution at 2.5 mg/mL in DMF. This was diluted to 62.5 ug/mL with phosphate buffer (50 mM Naphosphate, […], pH 7.4) just before use.
The substrate was HSV-1-amide UL 26 Open Reading Frame (242-255), obtained from Bachem (Product No. M-2160).
An assay buffer (1 M NaCitrate, 50 mM NaPhosphate, pH 7.4, 100 mM NaCl, 20% glycerol, 2 mM TCEP) was used to dilute stock solutions of enzyme and inhibitors.

Another test relates to HSV-1. Nature of the test: Antiviral assay: plaque reduction assay, HSV-1 in vero cells. Format: cell-based, HSV-1 (vero cells, African green monkey kidney cell). As to conditions: Human alphaherpesvirus 1, Vero, 72 h, read-out: ANTIVIRUS EC50. The text has this: These complimentary assays tested the ability of a compound to inhibit the production of new virus and the toxicity of the compound to the host cells. It was important that both assays be performed simultaneously in order to compare the results directly since toxicity may indirectly reduce viral replication.
The antiviral assay was estimated by plaque reduction assay performed by following methods. 1×10^5 of vero cells (African green monkey kidney cell) in 48-well plates were over-night cultured and the medium of this culture was replaced with 200 μl of 2% FBS DMEM containing 2× the desired final cordon of test compounds or no compound as control. The cultures were added 50 μl of 2% FBS DMEM containing with about 50 plaque forming units of HSV-1and next 250 μl of 2% FBS DMEM containing 1% methylcellulose. These infected cultures were incubated at 37° C., 5% CO2 for 3 days until plaques was visible. The cells were fixed and stained simultaneously with 0.025% crystalviolet in 5% formalin solution and plaque were counted. The concentration of test compound which conferred 50% inhibition of plaque formation compared to no compound control was interpolated from the observed data and defined as IC50.

Test [2] concerns the target T2, Human leukocyte elastase (HLE) (Homo sapiens, UniProt P08246).
T2 construct: purchased CALBIOCHEM
T2 sequence (P08246 30-267): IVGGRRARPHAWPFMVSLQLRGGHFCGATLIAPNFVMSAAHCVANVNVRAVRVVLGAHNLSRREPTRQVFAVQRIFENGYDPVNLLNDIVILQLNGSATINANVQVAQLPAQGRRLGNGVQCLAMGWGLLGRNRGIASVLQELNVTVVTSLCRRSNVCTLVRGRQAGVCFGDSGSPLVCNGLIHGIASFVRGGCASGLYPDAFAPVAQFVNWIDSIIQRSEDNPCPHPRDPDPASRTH
Nature of the test: Human leukocyte elastase assay. Format: biochemical. The note with it: 50 μM compound; 30 minutes pre-incubation. The method, then: Human Leukocyte Elastase Assay
Human leukocyte elastase (HLE) (CALBIOCHEM) was dissolved in saline at 1 mg/ml and further diluted 1/10 in assay buffer (0.2 M Tris, pH 8.0) before use.
0.75 μl of test compound in DMF (or DMF alone), 50 μl of assay buffer and 50 μl of enzyme were added to 96 well plate, mixed and pre-incubated for 30 minutes at ambient temperature. Reaction was initiated by addition of 50 μl of 2.5 mM methoxysuccinyl-Ala-Ala-Pro-Val-p-nitroanilide (Sigma; 25 mM in DMSO diluted 1/10 in assay buffer before use). The increase in absorbance at 405 nm was monitored for 3 min. with BIO-RAD model 3550 microplate reader.

Test [3] addresses T3, Bovine pancreas α-chymotripsin (Bos taurus, UniProt P00766).
T3 construct: purchased Sigma type II; host or cells: bovine pancreas
Nature of the test: Chymotripsin assay. Format: biochemical. As to conditions: 50 μM compound; 30 minutes pre-incubation; read-out: INHIBITION AT 50 μM CHYMOTRYPSIN (%). Here is the method: The chymotripsin assay was modified from the method of Delmar, et al. (Anal. Biochem. 99, 316-320 (1979)). Bovine pancreas α-chymotripsin(type II, Sigma) was dissolved in 0.001 N HCl at 1 mg/ml and further diluted 1/1000 in assay buffer (0.1 M Tris, pH 7.8 containing 0.1 M CaCl2) before use. 0.75 μl of test compound in DMF (or DMF alone), 50 μl of assay buffer and 50 μl of enzyme were added to 96 wells plates, mixed and pre-incubated for 30 minutes at ambient temperature. Reaction was initiated by addition of 50 μl of 0.2 mM N-succinyl-Ala-Ala-Pro-Phe-p-nitroanilide (Sigma; 2 mM in DMSO diluted 1/10 in assay buffer before use). The increase in absorbance at 405 nm was monitored for 3 minutes with BIO-RAD model 3550 microplate-reader.

Where [4] appears, read: recombinant HSV-1 protease, 30 minute pre-incubation at room temperature, FP or HPLC format not stated, read-out: ENZYME IC50.

Where two headings read alike, the source gives them in different places.

For orientation: IC50 means the point on the concentration scale where inhibition reaches its midpoint. What is called EC50 is the concentration giving half of the maximal effect. As a reminder, the inhibition is the relative decrease from the control value, in per cent.

T1 sequence (P10210 1-288): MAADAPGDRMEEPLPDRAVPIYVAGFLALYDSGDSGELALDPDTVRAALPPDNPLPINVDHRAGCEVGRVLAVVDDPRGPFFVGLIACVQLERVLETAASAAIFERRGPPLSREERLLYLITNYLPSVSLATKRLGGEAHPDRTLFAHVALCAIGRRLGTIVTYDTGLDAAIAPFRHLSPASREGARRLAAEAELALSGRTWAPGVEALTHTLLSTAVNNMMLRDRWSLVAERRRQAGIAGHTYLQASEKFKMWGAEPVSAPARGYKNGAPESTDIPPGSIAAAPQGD

In test [1], `Cc1cccc2nc(N3CCN(C)CC3)oc(=O)c12` [CC5, reference compound] came in with an IC50 of 28 µM. For the same compound, the EC50 with HSV-1 is > 50 µM. For the same compound, the inhibition at 50 µM is 100% in test [2] and 98% in test [3].
Consider `Cc1c(NC(=O)OC(C)(C)C)ccc2nc(N3CC=CCC3)oc(=O)c12` [Compound 8, 6-[[(1,1-Dimethylethoxy)carbonyl]amino]-5-methyl-2-[1-(1,2,3,6-tetrahydro-pyridyl)]-4H-3,1-benzoxazin-4-one], for which the IC50 in test [1] (setting [4]) came out at 5 µM. In the test with HSV-1, the EC50 was found to be 3.3 µM. Besides, the inhibition at 50 µM in test [2] and in test [3] was 0% throughout.
On to `Cc1c(NC(=O)OC(C)(C)C)ccc2nc(N3CCN(S(=O)(=O)c4ccccc4)CC3)oc(=O)c12` [Compound 15, 6-[[(1,1-Dimethylethoxy)carbonyl]amino]-5-methyl-2-[(4-benzenesulfonyl)-piperazinyl]-4H-3,1-benzoxazin-4-one], for which, in test [1] (setting [4]), the IC50 was determined as 1.7 µM. In addition, the EC50 with HSV-1 was 2.8 µM. Also, the inhibition at 50 µM in test [2] and in test [3] was 0% throughout.
In the case of `Cc1c(NC(=O)OC(C)(C)C)ccc2nc(N3CCCC4CCCCC43)oc(=O)c12` (stereo not shown) [Compound 11, 6-[[(1,1-Dimethylethoxy)carbonyl]amino]-5-methyl-2-(decahydroquinolyl)-4H-3,1benzoxazin-4-one], the IC50 in test [1] (setting [4]) is 5.5 µM. Besides, the EC50 in the test on HSV-1 amounted to 2.8 µM. In addition, the inhibition at 50 µM in test [2] and in test [3] was 0% each time.
With `Cc1cccc2nc(N(C)Cc3ccccc3)oc(=O)c12` [CC2, reference compound], the IC50 in test [1] (setting [4]) worked out at 3.2 µM. Also, the EC50 in the test on HSV-1 was 7.5 µM. For the same compound, the inhibition at 50 µM in test [2] and in test [3] was 101% each time.
As to `Cc1c(NC(=O)c2c(F)cc(F)cc2F)ccc2nc(N(C(C)C)C(C)C)oc(=O)c12` [Compound 12, 6-[(2,4,6-Trifluorobenzoyl)amino]-5-methyl-2(diisopropylamino)-4H-3,1-benzoxazine-4-one], in test [1] (setting [4]), the IC50 came to 6.3 µM. Also, the EC50 with HSV-1 was found to be 6.8 µM. Moreover, the values for the inhibition at 50 µM in test [2] and in test [3] were 13.4% and 22.4%, respectively.
The matching figures for `COc1ccc(CN(C)c2nc3ccc(NC(=O)OC(C)(C)C)c(C)c3c(=O)o2)cc1` [Compound 3, 6-[[(1,1-Dimethylethoxy)carbonyl]amino]-5-methyl-2-[methyl[(4-methoxyphenyl)methyl]amino]4H-3,1-benzoxazin-4-one]: 0.6 µM, 0.16 µM, 0% and 0%.
The matching figures for `Cc1c(NC(=O)OC(C)(C)C)ccc2nc(N(CCC#N)C3CC3)oc(=O)c12` [Compound 13, 6-[[(1,1-Dimethylethoxy)carbonyl]amino]-5-methyl-2-[(2-cyanoethyl)-(cyclopropyl)amino]-4H-3,1-benzoxazin-4-one]: 3.9 µM, 7.6 µM, 0% and 2.2%.
Take `CC(=O)N1CCN(c2nc3ccc(NC(=O)OC(C)(C)C)c(C)c3c(=O)o2)CC1` [Compound 16, 6-[[(1,1-Dimethylethoxy)carbonyl]amino]-5-methyl-2-[4-(1-acetylpiperadinyl)]-4H-3,1-benzoxazin-4-one]: the 50% inhibitory concentration (IC50) in test [1] (setting [4]) amounted to 2.3 µM. Moreover, in the test with HSV-1, the EC50 came out at 3.6 µM. Moreover, the figures for the inhibition at 50 µM in test [2] and in test [3] were 1.4% and 0%, respectively.
Consider `Cc1cccc2nc(N(C)Cc3ccccn3)oc(=O)c12` [CC3, reference compound], for which, in test [1] (setting [4]), the IC50 amounted to 3.2 µM. Also, the EC50 in the test with HSV-1 was determined as 48.9 µM. The inhibition at 50 µM in test [2] and in test [3] was 100% each time.

These data come from patent US6806269B1, “2-Amino-benzoxazinones for the treatment of herpes simplex virus” (G. D. Searle & Cop, priority 1999, dated 2004).
